From ChEMBL document CHEMBL1127117 (Bioorg Med Chem Lett, 1993)
Active and inactive are the calls of the source. No cut-off for these calls is given here.

How the values were obtained:
[1] = test system: Mus musculus; assay: Compound was tested for inhibitory activity in oral mouse cholesterol biosynthesis assay at the dose of 24 mg/Kg; NA means not active; assay type: functional, organism-based
[2] = species on record: Mus musculus; assay: Compound was tested for inhibitory activity in oral mouse cholesterol biosynthesis assay; assay type: functional
[3] = test system: Mus musculus; assay: Compound was tested for inhibitory activity in oral mouse cholesterol biosynthesis assay at the dose of 24 mg/Kg; assay type: functional
[4] = test system: Mus musculus; assay: Compound was tested for inhibitory activity in oral mouse cholesterol biosynthesis assay at the dose of 6 mg/Kg; assay type: functional
[5] = test system: Mus musculus; assay: Compound was tested for inhibitory activity in oral mouse cholesterol biosynthesis assay at the dose of 40 mg/Kg; assay type: functional

C=C(CCC12OC(C(=O)OCCC(C)C)C(O)(C(=O)O)C(C(=O)OCc3ccccc3)(O1)[C@H](OC(=O)/C=C/[C@@H](C)C[C@@H](C)CC)[C@H]2O)[C@@H](OC(C)=O)[C@H](C)Cc1ccccc1 (some centres undefined)
inhibition [1]: inactive

C=C(CCC12OC(C(=O)OCCC(C)C)C(O)(C(=O)OCOC(=O)C(C)(C)C)C(C(=O)O)(O1)[C@H](OC(=O)/C=C/[C@@H](C)C[C@@H](C)CC)[C@H]2O)[C@@H](OC(C)=O)[C@H](C)Cc1ccccc1 (some centres undefined)
ED50 [2]: 9 mg/kg

C=C(CCC12OC(C(=O)O)C(O)(C(=O)O)C(C(=O)O)(O1)[C@H](OC(=O)/C=C/[C@@H](C)C[C@@H](C)CC)[C@H]2O)[C@@H](OC(C)=O)[C@H](C)Cc1ccccc1 (some centres undefined) [ZARAGOZIC ACID A]
ED50 [2]: 100 mg/kg

C=C(CCC12OC(C(=O)OCCC(C)C)C(O)(C(=O)OCC(=O)N(CC)CC)C(C(=O)O)(O1)[C@H](OC(=O)/C=C/[C@@H](C)C[C@@H](C)CC)[C@H]2O)[C@@H](OC(C)=O)[C@H](C)Cc1ccccc1 (some centres undefined)
inhibition in vivo at 24 mg/kg [3]: 15%

C=C(CCC12OC(C(=O)OCCC(C)C)C(O)(C(=O)OCC(=O)N(C)C)C(C(=O)O)(O1)[C@H](OC(=O)/C=C/[C@@H](C)C[C@@H](C)CC)[C@H]2O)[C@@H](OC(C)=O)[C@H](C)Cc1ccccc1 (some centres undefined)
inhibition in vivo at 24 mg/kg [3]: 12%

C=C(CCC12OC(C(=O)OCCC(C)C)C(O)(C(=O)OCOC(C)=O)C(C(=O)O)(O1)[C@H](OC(=O)/C=C/[C@@H](C)C[C@@H](C)CC)[C@H]2O)[C@@H](OC(C)=O)[C@H](C)Cc1ccccc1 (some centres undefined)
ED50 [2]: 6 mg/kg

C=C(CCC12OC(C(=O)OCCC(C)C)C(O)(C(=O)OCCCCCCCC)C(C(=O)O)(O1)[C@H](OC(=O)/C=C/[C@@H](C)C[C@@H](C)CC)[C@H]2O)[C@@H](OC(C)=O)[C@H](C)Cc1ccccc1 (some centres undefined)
inhibition in vivo at 24 mg/kg [3]: 5%

C=C(CCC12OC(C(=O)OCCC(C)C)C(O)(C(=O)OCCOC)C(C(=O)O)(O1)[C@H](OC(=O)/C=C/[C@@H](C)C[C@@H](C)CC)[C@H]2O)[C@@H](OC(C)=O)[C@H](C)Cc1ccccc1 (some centres undefined)
inhibition in vivo at 24 mg/kg [3]: 55%

C=C(CCC12OC(C(=O)OCCC(C)C)C(O)(C(=O)OCc3ccccc3)C(C(=O)O)(O1)[C@H](OC(=O)/C=C/[C@@H](C)C[C@@H](C)CC)[C@H]2O)[C@@H](OC(C)=O)[C@H](C)Cc1ccccc1 (some centres undefined)
inhibition in vivo at 24 mg/kg [3]: 50%

C=C(CCC12OC(C(=O)OCCC(C)C)C(O)(C(=O)OC)C(C(=O)O)(O1)[C@H](OC(=O)/C=C/[C@@H](C)C[C@@H](C)CC)[C@H]2O)[C@@H](OC(C)=O)[C@H](C)Cc1ccccc1 (some centres undefined)
ED50 [2]: 20 mg/kg

C=C(CCC12OC(C(=O)OCCC(C)C)C(O)(C(=O)OCC(=O)OC)C(C(=O)O)(O1)[C@H](OC(=O)/C=C/[C@@H](C)C[C@@H](C)CC)[C@H]2O)[C@@H](OC(C)=O)[C@H](C)Cc1ccccc1 (some centres undefined)
inhibition in vivo at 24 mg/kg [3]: 43%

C=C(CCC12OC(C(=O)OCCC(C)C)C(O)(C(=O)O)C(C(=O)OCOC(C)=O)(O1)[C@H](OC(=O)/C=C/[C@@H](C)C[C@@H](C)CC)[C@H]2O)[C@@H](OC(C)=O)[C@H](C)Cc1ccccc1 (some centres undefined)
inhibition in vivo at 6 mg/kg [4]: 13%

C=C(CCC12OC(C(=O)OCCC(C)C)C(O)(C(=O)OCC(=O)OC(C)(C)C)C(C(=O)O)(O1)[C@H](OC(=O)/C=C/[C@@H](C)C[C@@H](C)CC)[C@H]2O)[C@@H](OC(C)=O)[C@H](C)Cc1ccccc1 (some centres undefined)
inhibition [1]: inactive

C=CCOC(=O)C12OC(CCC(=C)[C@@H](OC(C)=O)[C@H](C)Cc3ccccc3)(OC(C(=O)OCCC(C)C)C1(O)C(=O)O)[C@H](O)[C@H]2OC(=O)/C=C/[C@@H](C)C[C@@H](C)CC (some centres undefined)
inhibition [1]: inactive

C=CCOC(=O)C1(O)C(C(=O)OCCC(C)C)OC2(CCC(=C)[C@@H](OC(C)=O)[C@H](C)Cc3ccccc3)OC1(C(=O)O)[C@H](OC(=O)/C=C/[C@@H](C)C[C@@H](C)CC)[C@H]2O (some centres undefined)
inhibition in vivo at 24 mg/kg [3]: 38%

C=C(CCC12OC(C(=O)OCCC(C)C)C(O)(C(=O)O)C(C(=O)OC)(O1)[C@H](OC(=O)/C=C/[C@@H](C)C[C@@H](C)CC)[C@H]2O)[C@@H](OC(C)=O)[C@H](C)Cc1ccccc1 (some centres undefined)
inhibition [1]: inactive

C=C(CCC12OC(C(=O)OCCC(C)C)C(O)(C(=O)OCC)C(C(=O)O)(O1)[C@H](OC(=O)/C=C/[C@@H](C)C[C@@H](C)CC)[C@H]2O)[C@@H](OC(C)=O)[C@H](C)Cc1ccccc1 (some centres undefined)
inhibition in vivo at 24 mg/kg [3]: 59%

C=C(CCC12OC(C(=O)OCCC(C)C)C(O)(C(=O)O)C(C(=O)O)(O1)[C@H](OC(=O)/C=C/[C@@H](C)C[C@@H](C)CC)[C@H]2O)[C@@H](OC(C)=O)[C@H](C)Cc1ccccc1 (some centres undefined)
inhibition in vivo at 40 mg/kg [5]: 61%

C=C(CCC12OC(C(=O)OCCC(C)C)C(O)(C(=O)OCC(=O)c3ccc(Br)cc3)C(C(=O)O)(O1)[C@H](OC(=O)/C=C/[C@@H](C)C[C@@H](C)CC)[C@H]2O)[C@@H](OC(C)=O)[C@H](C)Cc1ccccc1 (some centres undefined)
inhibition in vivo at 24 mg/kg [3]: 7%
